Data from paper PMC12544700, “Identification of a Small Secretoneurin Derivative That Inhibits CaMKIIδ Activity” (Journal of Cellular and Molecular Medicine, 2025).
Peptide text beside a SMILES is read from it. * marks the point of attachment. Biotin = O=C1N[C@H]2[C@H](CS[C@H]2CCCCC(=O)*)N1; Ahx = NCCCCCC(=O)O

Tests used:
[1] = biological target: T1, Recombinant rat CaMKIIδ‐T287D (Rattus norvegicus, UniProt P15791, T287D); test: ELISA-based competition assay with T‐site binding peptides; details: 5 μL 1 mM biotin‐SN‐db‐short with 20 μL 1 mM untagged competitor; Figure 2C, n = 4–12
T1 construct: Recombinant human His‐CaMKIIδ‐T287D and rat His‐CaMKIIδ‐T287D full‐length proteins; His; purchased Genscript Corp (custom made)
Method: The wells were then washed five times with 1× PBS‐t. […] For the competition assay, 20 μL (1 mM) of T‐site binding peptides AKAP18δ‐N1, CN21 or CN27 (without any biotin tags) were incubated in the same well with 5 μL (1 mM) of SN biotinylated peptides.

adult rat cardiomyocytes [2] = test: Ca2+ imaging (sparks, waves, transients) with ISO stimulation; assay type: cell-based; details: ISO 100 nM
Method: Male Wistar rats (Janvier, France) weighing ~300 g were sedated in an anaesthesia chamber by inhalation of 5% isoflurane and 95% O2. The heart was excised under deep surgical anaesthesia, cannulated, and then retrogradely perfused through the aorta on a modified Langendorff setup with cell isolation solution containing (in mM, pH adjusted to 7.4, 37°C): NaCl 130, Hepes 25, D‐glucose 22, KCl 5.4, MgCl2 0.5, NaH2PO4 0.4, and a flow rate of 4 mL/min. After the heart was cleaned of blood, collagenase type II (2 mg/mL, Worthington Biochemical Corp, Lakewood, NJ, USA) was added to the perfusate, and the hearts digested for ~10 min. Following digestion, hearts were cut down, and the left ventricle dissected into pieces, which were transferred into 10 mL cell isolation solution with 250 μL BSA (40 mg/mL) and ~0.2 mg Deoxyribonuclease I (Worthington Biochemical Corporation, Lakewood, NJ, USA). After light agitation (~2 min), the supernatant was filtered (200 μm nylon mesh), and isolated cardiomyocytes were allowed to sediment by gravity. The cardiomyocytes were then washed in isolation buffer containing 1 mg/mL BSA, with a stepwise increase in Ca^2+ concentration up to 0.2 mM. Animal experiments were approved by the Norwegian Research Authority (FOTS ID: 30114). Adult rat cardiomyocytes were treated with 10 μM of SN, SN‐db‐short or scram in 0.2 mM Ca^2+ cell isolation solution for 1 h. These loading concentrations are higher than those used in our previous studies of SN, where we had sought to examine endogenous, circulating levels, rather than potentially therapeutic levels applied exogenously. […] Ca^2+ transients were recorded in linescan mode using a Zeiss LSM 7 Live confocal microscope (Jena, Germany), at a frame rate of 1.5 ms and a pixel size of 0.16 μm. These recordings were normalised to resting fluorescence values to create F/F0 images and assess Ca^2+ transient amplitude. The rate of Ca^2+ transient decline was assessed by measurements of the decay time constant (Tau). Spontaneous sparks and waves were measured during a 9 s pause in the electrical excitation. […]

adult rat cardiomyocytes [3] = test: Caffeine-elicited Ca2+ transients (Ca2+ extrusion); assay type: cell-based; details: 10 mM caffeine; whole‐cell photometry; Figure S3, n = 10–18, 4–6 rats
Method: Male Wistar rats (Janvier, France) weighing ~300 g were sedated in an anaesthesia chamber by inhalation of 5% isoflurane and 95% O2. The heart was excised under deep surgical anaesthesia, cannulated, and then retrogradely perfused through the aorta on a modified Langendorff setup with cell isolation solution containing (in mM, pH adjusted to 7.4, 37°C): NaCl 130, Hepes 25, D‐glucose 22, KCl 5.4, MgCl2 0.5, NaH2PO4 0.4, and a flow rate of 4 mL/min. After the heart was cleaned of blood, collagenase type II (2 mg/mL, Worthington Biochemical Corp, Lakewood, NJ, USA) was added to the perfusate, and the hearts digested for ~10 min. Following digestion, hearts were cut down, and the left ventricle dissected into pieces, which were transferred into 10 mL cell isolation solution with 250 μL BSA (40 mg/mL) and ~0.2 mg Deoxyribonuclease I (Worthington Biochemical Corporation, Lakewood, NJ, USA). […]
To estimate SR Ca^2+ content, Ca^2+ release was triggered by rapid exposure to 10 mM caffeine (Sigma) and recorded by whole‐cell photometry (Photon Technology International, Monmouth Junction, NJ, USA) with a 40× oil objective. Cells were first stimulated at 1 Hz in Hepes‐Tyrode (HT, see the paragraph above) solution containing CaCl2 until at least three stable Ca^2+ transients were recorded. […]

- SN‐db‐short binding to CaMKIIδ‐T287D in presence of competitor peptides AKAP18δ‐N1, CN21, CN27 [1]: only marginally outcompeted
- Rate of Ca2+ extrusion (Na+‐Ca2+ exchanger and plasma membrane Ca2+ ATPase activity) (adult rat cardiomyocytes [3]): no change
SMILES: CC(C)C[C@H](NC(=O)[C@H](CCC(=O)O)NC(=O)[C@H](CCC(N)=O)NC(=O)[C@H](Cc1ccccc1)NC(=O)[C@H](Cc1ccccc1)NC(=O)[C@H](CO)NC(=O)[C@H](CCC(=O)O)NC(=O)[C@H](Cc1ccccc1)NC(=O)[C@@H](NC(=O)[C@H](C)NC(=O)[C@H](CC(C)C)NC(=O)[C@H](CO)NC(=O)[C@H](CCC(N)=O)NC(=O)[C@@H]1CCCN1C(=O)[C@@H](NC(=O)[C@H](Cc1ccc(O)cc1)NC(=O)[C@H](CCC(N)=O)NC(=O)[C@H](CCC(=O)O)NC(=O)CCCCCNC(=O)CCCC[C@@H]1SC[C@@H]2NC(=O)N[C@@H]21)[C@@H](C)O)[C@@H](C)O)C(=O)NCC(=O)N[C@@H](CCCCN)C(=O)O [SN‐db‐short] ({Biotin-Ahx}-EQYTPQSLATFESFFQELGK-OH; N-terminus and C-terminus assumed)
- ISO-induced increase of Ca2+ transient amplitude and acceleration of Ca2+ transient decay (adult rat cardiomyocytes [2]; 10 μM peptide 1 h, field stimulation 1 Hz, Figure 5B–D, n = 22–73, 3–6 rats): significantly attenuated
- Ca2+ spark incidence under ISO (adult rat cardiomyocytes [2]; 10 μM peptide 1 h pre-treatment, 9 s pause after 1 Hz pacing, Figure 4D, n = 35–85 cells from 3 to 6 rats): strong reduction
- Ca2+ wave incidence under ISO (adult rat cardiomyocytes [2]; 10 μM peptide 1 h pre-treatment, 9 s pause after 1 Hz pacing, Figure 4E, n = 35–66 cells from 3 to 5 rats): strong reduction
